Results on one substance are retold here after patent US9944721B2, “Polysialic acid and use for treatment of neurodegenerative and neuroinflammatory diseases” (RHEINISCHE FRIEDRICH-WILHELMS UNIVERSITÄT BONN, priority 2013, dated 2018).

Experiment [1] has as its system co-culture of human iPSdM1 microglia and iPS cell-derived neurons with amyloid-β1-42. Put plainly: Microglia-neuron co-culture with fibrillary amyloid-β1-42, 48 hours (neurite length). The experiment is classed as cell-based. The conditions noted are these: 48 hours co-culture with microglia and 1 μM fibrillary amyloid-β1-42; without PSA-20 0.64+/−0.03; FIG. 4G. Here is the method: Human induced pluripotent stem cell derived microglia (iPSdM) were obtained from iPS cells. iPSdM-1 line was used in this study generated from the iLB-C-35m-r1 clone (Bonn). iPSdM-1 (here named microglia or microglial cells) were culture in N2-medium consisting of DMEM/F12 culture medium (Gibco) supplemented with 1% N2 (Invitrogen), 0.48 mM L-glutamine (Gibco) and 100 μg/ml penicillin/streptomycin (Gibco). Cells were cultured with high density and split 1:5. After splitting, cells recovered and attached again to the new dishes.
Human induced pluripotent stem (iPS) cells (Foreskin-1, WiCell) were used for generation of primitive neural stem cell (pNSC) and their differentiation into neurons according to a modified protocol, which was used to obtain primitive neural precursors from human embryonic stem cells. Briefly, iPS cells were cultured on feeder cells to form small colonies. […]
Cells were fixed for 15 minutes with 4% paraformaldehyde (PFA), blocked and permeabilized for 60 minutes with a solution that contained bovine serum albumin (10% BSA) and normal goat serum (5% nGS) and 0.1% TritonX-100. […] Ten images were randomly collected from each experimental setup by confocal laser scanning microscopy (Fluoview 1000, Olympus) and total lengths of neuronal branches from β-tubulin-III stained neurites was determined done by the NIH ImageJ/NeuronJ software.

The test system of experiment [2] is human neurons co-cultured with LPS-pre-activated human microglia. Put plainly: LPS-toxin induced microglia-neuron co-culture Parkinson's disease model (neurite length). The experiment is classed as cell-based. The following applies: 1.5 μM, 48 hours, without PSA-20 0.64+/−0.01, FIG. 9A. Here is the method: Human induced pluripotent stem cell-derived microglia (iPSdM) were obtained from induced pluripotent stem (iPS) cells. The microglial iPSdM line 1 (iPSdM-1) was used in this study generated from the iLB-C-35m-r1 clone (Bonn). iPSdM-1 (here named microglia or microglial cells) were cultured in N2-medium consisting of DMEM/F12 culture medium (Gibco) supplemented with 1% N2 (Invitrogen), 0.48 mM L-glutamine (Gibco) and 100 μg/ml penicillin/streptomycin (Gibco). Human induced pluripotent stem (iPS) cells (Foreskin-1, WiCell) were used for the generation of primitive neural stem cell (pNSC) and their differentiation into neurons according to a modified protocol, which was used to obtain primitive neural precursors from human embryonic stem cells. Briefly, iPS cells were cultured on feeder cells to form small colonies. […]
10 pictures per condition per experiment were taken by confocal laser scanning microscopy (Fluoview 1000, Olympus). Measurement of neuronal branches was done by ImageJ/Neuron J software (NIH) and relative neural branches lengths were quantified. […]

For the substance poly-(α(2→8)Neu5Ac)n [PSA-20], the relative neurite length in experiment [1] is 0.82+/−0.03; in experiment [2] it was 0.91+/−0.02.
